Target: Human immunodeficiency virus type 1 integrase (Human immunodeficiency virus 1, UniProt Q7ZJM1)
Test: Inhibition of HIV1 integrase strand transfer activity

Chain of Human immunodeficiency virus type 1 integrase (Q7ZJM1 whole entry): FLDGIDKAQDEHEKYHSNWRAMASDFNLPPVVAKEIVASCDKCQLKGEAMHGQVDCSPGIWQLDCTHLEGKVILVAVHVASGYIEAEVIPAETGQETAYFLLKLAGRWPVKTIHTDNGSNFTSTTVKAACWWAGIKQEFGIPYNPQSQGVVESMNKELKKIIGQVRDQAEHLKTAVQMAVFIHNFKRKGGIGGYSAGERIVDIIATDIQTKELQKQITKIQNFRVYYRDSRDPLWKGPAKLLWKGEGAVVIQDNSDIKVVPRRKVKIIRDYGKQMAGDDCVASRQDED

Structure (SMILES): CCCCCC[C@H]1OC(=O)C2=C1[C@@H](O)[C@@H]1O[C@@H]1[C@@H]2O [INTEGRASONE]
- IC50: 41 µM
